Experiment [1] deals with Avena fatua (AVEFA). Put plainly: Test 1A glasshouse assay, post-emergence herbicidal activity. The format is in vivo. Particulars: 312 h, 250 g/ha, 13 days after application, read-out: Post-Emergence Herbicidal Activity (% Phytotoxicity) AVEFA. On the procedure:
(§1) Seeds of a variety of test species are sown in standard soil (usually sandy soil) in pots. After cultivation for one day (pre-emergence) or after 8 days cultivation (post-emergence) under controlled conditions in a glasshouse (at 24/16° C., day/night; 14 hours light; 65% humidity), the plants are sprayed with an aqueous spray solution derived from the formulation of the technical active ingredient (compound) in acetone/water (50:50) solution containing 0.5% Tween 20 (polyoxyethylene sorbitan monolaurate, CAS RN 9005-64-5). The test plants are then grown under controlled conditions in a glasshouse (at 24/16° C., day/night; 14 hours light; 65% humidity) and watered twice daily. 13 days after application of the test compounds, for pre- and post-emergence, the test is evaluated visually for percentage phytotoxicity to each plant (where 100%=total damage to plant; 0%=no damage to plant).
(§2) Lolium perenne (LOLPE), Triticum aestivum (TRZAW, winter wheat, variety ‘Hereward’), Alopecurus myosuroides (ALOMY), Echinochloa crus-galli (ECHCG), and Avena fatua (AVEFA). All these are grassy monocotyledonous weeds and/or (for wheat) grassy crops.

Experiment [2] deals with Triticum aestivum (TRZAW, winter wheat, variety ‘Hereward’). The description is as above. Particulars: 312 h, 250 g/ha, 13 days after application, read-out: Post-Emergence Herbicidal Activity (% Phytotoxicity) TRZAW. The format is in vivo. The method, then:
as §1, §2

Experiment [3] relates to Lolium perenne (LOLPE). The experiment is described as above. The format is in vivo. As to conditions: 312 h, 250 g/ha, 13 days after application, read-out: Post-Emergence Herbicidal Activity (% Phytotoxicity) LOLPE. The method, then: as §1, §2
Experiment [4] relates to Echinochloa crus-galli (ECHCG). Put plainly: Test 1A glasshouse assay, pre-emergence herbicidal activity. The format is in vivo. Particulars: 312 h, 250 g/ha, 13 days after application, read-out: Pre-Emergence Herbicidal Activity (% Phytotoxicity) ECHCG. On the procedure: as §1
(§3) Alopecurus myosuroides (ALOMY), Setaria faberi (SETFA), Echinochloa crus-galli (ECHCG), Amaranthus retroflexus (AMARE), and Abutilon theophasti Medik. (ABUTH, common English name “velvetleaf”). Of these, Alopecurus myosuroides (ALOMY), Setaria faberi (SETFA), and Echinochloa crus-galli (ECHCG) are grassy monocotyledonous weeds. […]

In experiment [5] the test system is Echinochloa crus-galli (ECHCG). As to the kind of experiment: Test 1A glasshouse assay, post-emergence herbicidal activity. The format is in vivo. Particulars: 312 h, 250 g/ha, 13 days after application, read-out: Post-Emergence Herbicidal Activity (% Phytotoxicity) ECHCG. The method, then:
as §1, §3

Experiment [6] has as its system Alopecurus myosuroides (ALOMY). The experiment is described as above. As to conditions: 312 h, 250 g/ha, 13 days after application, read-out: Post-Emergence Herbicidal Activity (% Phytotoxicity) ALOMY. The format is in vivo. The method, then: as §1, §3
Experiment [7] has as its system Avena fatua (AVEFA). As to the kind of experiment: Test 1A glasshouse assay, pre-emergence herbicidal activity. The format is in vivo. Particulars: 312 h, 250 g/ha, 13 days after application, read-out: Pre-Emergence Herbicidal Activity (% Phytotoxicity) AVEFA. On the procedure:
as §1
(§4) Lolium perenne (LOLPE), Triticum aestivum (TRZAW, winter wheat), Alopecurus myosuroides (ALOMY), Echinochloa crus-galli (ECHCG), and Avena fatua (AVEFA). All these are grassy monocotyledonous weeds and/or (for wheat) grassy crops.

The subject of experiment [8] is Triticum aestivum (TRZAW, winter wheat). The experiment is described as above. Particulars: 312 h, 250 g/ha, 13 days after application, read-out: Pre-Emergence Herbicidal Activity (% Phytotoxicity) TRZAW. The format is in vivo. The method, then:
as §1, §4

In experiment [9] the test system is Lolium perenne (LOLPE). The experiment is described as above. The format is in vivo. As to conditions: 312 h, 250 g/ha, 13 days after application, read-out: Pre-Emergence Herbicidal Activity (% Phytotoxicity) LOLPE. The method, then: as §1, §4
Experiment [10] concerns Alopecurus myosuroides (ALOMY). Described as above. The format is in vivo. As to conditions: 312 h, 250 g/ha, 13 days after application, read-out: Pre-Emergence Herbicidal Activity (% Phytotoxicity) ALOMY. On the procedure: as §1
Alopecurus myosuroides (ALOMY), Setaria faberi (SETFA), Echinochloa crus-galli (ECHCG), Amaranthus retroflexus (AMARE), and Abutilon theophasti Medik. (ABUTH, common English name “velvetleaf”). Of these, Alopecurus myosuroides (ALOMY), Setaria faberi (SETFA), and Echinochloa crus-galli (ECHCG) are grassy monocotyledonous weeds.
as §4

The next experiment concerns volunteer corn. Particulars: gibberellic acid mixed with clethodim; cited from earlier work.
The subject of experiment [11] is Johnsongrass (Sorghum halepense). Particulars: gibberellic acid mixed with clethodim; cited from earlier work.

As for `CC#Cc1cc(C)c(C2C(=O)CN(Cc3ccccn3)C2=O)c(C)c1` (stereo not drawn) [Compound A48, 3-(2,6-dimethyl-4-prop-1-ynyl-phenyl)-1-(2-pyridylmethyl)pyrrolidine-2,4-dione], the inhibition at 250 g/ha in the experiment on Avena fatua (AVEFA) [1] worked out at 20%; in [2], 30%; in the experiment on Lolium perenne (LOLPE) [3], 70%; in [4] it was 80%; in experiment [5] it was 70%; in experiment [6], 90%. Besides, the inhibition at 250 g/ha in the experiment with Avena fatua (AVEFA) [7] came out at 40%; in experiment [8], 40%; in the experiment on Lolium perenne (LOLPE) [9], 80%; in experiment [10] it was 90%.
With `C=C1C[C@]23C[C@@]1(O)CC[C@H]2[C@@]12C=C[C@H](O)[C@@](C)(C(=O)O1)[C@H]2[C@@H]3C(=O)O` [gibberellic acid], in the experiment on volunteer corn, the “control and/or speed of control of volunteer corn” value is recorded as “increased clethodim's control and/or speed of control”. In addition, the “control and/or speed of control of Johnsongrass (Sorghum halepense)” value in [11] is “increased clethodim's control and/or speed of control”.
